The experiment has as its system CD8F1 mice, subcutaneous mammary adenocarcinoma, T/C%. The experiment in a line: NCI In Vivo Anticancer Drug Screen. Data for tumor model Mammary Adenocarcinoma CD8F1 (subcutaneous) in CD8F1. The conditions noted are these: higher = larger tumour. On the procedure: The antitumor activity of compounds was measured in mice bearing transplantable tumors. Survival or tumor size were measured and the results are expressed as the measurement made in the treated group (T) divided by the measurement made in the vehicle treated control group (C). The tumor model used in this assay is Mammary Adenocarcinoma CD8F1 (subcutaneous) in CD8F1

Setting [1] is: endpoint: median tumor weight (est.), dose: 50.0 mg/kg/injection, schedule: Q07DX005 (ip), vehicle: suspension in saline.
Where [2] appears, read: endpoint: median tumor weight (est.), dose: 100.0 mg/kg/injection, schedule: Q07DX005 (ip), vehicle: suspension in saline.

Results on twelve molecules are retold here after PubChem BioAssay AID220 (DTP/NCI, 2004).

The structures appear in SMILES notation. Where “and” joins values, the source holds several entries; their conditions need not be identical. Identical values can stand only once. Records with an inconclusive call do not appear.

For the molecule `N#C[C@H](OC1OC(COC2OC(CO)C(O)C(O)C2O)C(O)C(O)C1O)c1ccccc1` (stereo partly specified), the T/C under setting [1] is 75 % of control; the T/C (endpoint: median tumor weight (est.), dose: 100.0 mg/kg/injection, schedule: Q07DX005 (ip), vehicle: saline) is 76 % of control; the T/C under setting [2] is 77 % of control; the T/C (endpoint: median tumor weight (est.), dose: 200.0 mg/kg/injection, schedule: Q07DX005 (ip), vehicle: saline) was 95 % of control; the T/C (endpoint: median tumor weight (est.), dose: 200.0 mg/kg/injection, schedule: Q07DX005 (ip), vehicle: suspension in saline) was 171 % of control; the T/C (endpoint: median tumor weight (est.), dose: 400.0 mg/kg/injection, schedule: Q07DX005 (ip), vehicle: saline) is 83 % of control. Moreover, the T/C is 100 % of control (endpoint: median tumor weight (est.), dose: 400.0 mg/kg/injection, schedule: Q07DX005 (ip), vehicle: suspension in saline); 96 % of control (endpoint: median tumor weight (est.), dose: 800.0 mg/kg/injection, schedule: Q07DX005 (ip), vehicle: saline); 41 % of control (endpoint: median tumor weight (est.), dose: 1600.0 mg/kg/injection, schedule: Q07DX005 (ip), vehicle: saline); 413 % of control (endpoint: median tumor weight (est.), dose: 1600.0 mg/kg/injection, schedule: Q07DX005 (ip), vehicle: suspension in saline).

Consider `COc1cc2c[n+](C)c3c4cc5c(cc4ccc3c2cc1OC)OCO5`, for which the T/C runs as follows: (endpoint: median tumor weight (est.), dose: 10.0 mg/kg/injection, schedule: Q07DX005 (ip), vehicle: saline with Tween-80) 78 % of control; (endpoint: median tumor weight (est.), dose: 40.0 mg/kg/injection, schedule: Q07DX005 (ip), vehicle: saline with Tween-80) 31 % of control; (endpoint: median tumor weight (est.), dose: 80.0 mg/kg/injection, schedule: Q07DX005 (ip), vehicle: saline with Tween-80) 4 % of control.

`COc1ccc(OC)c(/C=C/c2ccnc3ccccc23)c1`: the T/C is, setting by setting: (endpoint: median tumor weight (est.), dose: 12.5 mg/kg/injection, schedule: Q07DX005 (ip), vehicle: saline with Tween-80) 77 % of control; (endpoint: median tumor weight (est.), dose: 25.0 mg/kg/injection, schedule: Q07DX005 (ip), vehicle: saline with Tween-80) 93 % of control; (endpoint: median tumor weight (est.), dose: 50.0 mg/kg/injection, schedule: Q07DX005 (ip), vehicle: saline with Tween-80) 78 % of control; (endpoint: median tumor weight (est.), dose: 100.0 mg/kg/injection, schedule: Q07DX005 (ip), vehicle: saline with Tween-80) 67 % of control; (endpoint: median tumor weight (est.), dose: 200.0 mg/kg/injection, schedule: Q07DX005 (ip), vehicle: saline with Tween-80) 86 % of control; (endpoint: median tumor weight (est.), dose: 400.0 mg/kg/injection, schedule: Q07DX005 (ip), vehicle: saline with Tween-80) 71 % of control.

On to `CCCCCCCCCCCCCCC/C([O-])=N/[N+](C)(C)CC(C)O` (stereo unspecified), for which the T/C runs as follows: (endpoint: median tumor weight change, dose: 125.0 mg/kg/injection, schedule: Q01DX001 (ip), vehicle: saline) 49 % of control; (endpoint: median tumor weight change, dose: 250.0 mg/kg/injection, schedule: Q01DX001 (ip), vehicle: saline) 96 % of control; (endpoint: median tumor weight change, dose: 500.0 mg/kg/injection, schedule: Q01DX001 (ip), vehicle: saline) 69 % of control.

In the case of `Oc1ccccc1C=NCCC[N-]CCCN=Cc1ccccc1O.[Co]`, the T/C by setting is: (endpoint: median tumor weight (est.), dose: 12.5 mg/kg/injection, schedule: Q07DX005 (ip), vehicle: suspension in saline) 162 % of control; (endpoint: median tumor weight (est.), dose: 25.0 mg/kg/injection, schedule: Q07DX005 (ip), vehicle: suspension in saline) 223 % of control; under setting [1], 180 % of control; under setting [2], 97 % of control.

With `CC(=O)C(O)N1C(=O)C=CC1=O` (stereo unspecified), the T/C runs as follows: (endpoint: median tumor weight (est.), dose: 0.62 mg/kg/injection, schedule: Q07DX005 (ip), vehicle: saline) 78 % of control; (endpoint: median tumor weight (est.), dose: 1.25 mg/kg/injection, schedule: Q07DX005 (ip), vehicle: saline) 74 % of control; (endpoint: median tumor weight (est.), dose: 2.5 mg/kg/injection, schedule: Q07DX005 (ip), vehicle: saline) 77 % of control; (endpoint: median tumor weight (est.), dose: 5.0 mg/kg/injection, schedule: Q07DX005 (ip), vehicle: saline) 50 % of control.

With `C#C[C@]1(O)CC[C@H]2[C@@H]3CCc4cc(O)ccc4[C@H]3CC[C@@]21C`, the T/C runs as follows: (endpoint: median tumor weight change, dose: 12.5 mg/kg/injection, schedule: Q01DX001 (ip), vehicle: Klucel (hydroxypropylcellulose) (HPC)) 92 % of control; (endpoint: median tumor weight change, dose: 25.0 mg/kg/injection, schedule: Q01DX001 (ip), vehicle: Klucel (hydroxypropylcellulose) (HPC)) 78 % of control; (endpoint: median tumor weight change, dose: 50.0 mg/kg/injection, schedule: Q01DX001 (ip), vehicle: Klucel (hydroxypropylcellulose) (HPC)) 75 % of control; (endpoint: median tumor weight change, dose: 56.0 mg/kg/injection, schedule: Q01DX001 (ip), vehicle: Klucel (hydroxypropylcellulose) (HPC)) 60 % of control; (endpoint: median tumor weight change, dose: 100.0 mg/kg/injection, schedule: Q01DX001 (ip), vehicle: Klucel (hydroxypropylcellulose) (HPC)) 63 % of control; (endpoint: median tumor weight change, dose: 112.0 mg/kg/injection, schedule: Q01DX001 (ip), vehicle: Klucel (hydroxypropylcellulose) (HPC)) 75 % of control. Further, the T/C is 46 % of control (endpoint: median tumor weight change, dose: 200.0 mg/kg/injection, schedule: Q01DX001 (ip), vehicle: Klucel (hydroxypropylcellulose) (HPC)); 66 % of control (endpoint: median tumor weight change, dose: 225.0 mg/kg/injection, schedule: Q01DX001 (ip), vehicle: Klucel (hydroxypropylcellulose) (HPC)); 52 % of control (endpoint: median tumor weight change, dose: 400.0 mg/kg/injection, schedule: Q01DX001 (ip), vehicle: Klucel (hydroxypropylcellulose) (HPC)); 101 % of control (endpoint: median tumor weight change, dose: 450.0 mg/kg/injection, schedule: Q01DX001 (ip), vehicle: Klucel (hydroxypropylcellulose) (HPC)); 101 % of control (endpoint: median tumor weight change, dose: 450.0 mg/kg/injection, schedule: Q01DX001 (ip), vehicle: saline with Tween-80).

For the molecule `CC1CN=C(c2ccc(NC(=O)c3ccc(C(=O)Nc4ccc(C5=NCC(C)N5)cc4)cc3)cc2)N1` (stereo unspecified), the T/C was 51 % of control (endpoint: median tumor weight (est.), dose: 50.0 mg/kg/injection, schedule: Q07DX005 (ip), vehicle: Klucel (hydroxypropylcellulose) (HPC)); 94 % of control (endpoint: median tumor weight (est.), dose: 100.0 mg/kg/injection, schedule: Q07DX005 (ip), vehicle: Klucel (hydroxypropylcellulose) (HPC)); 36 % of control (endpoint: median tumor weight (est.), dose: 200.0 mg/kg/injection, schedule: Q07DX005 (ip), vehicle: Klucel (hydroxypropylcellulose) (HPC)).

For the molecule `[Cl][Pt+2][Cl].[NH-]CC1(C[NH-])CCC1`, the T/C (endpoint: median tumor weight change, dose: 12.5 mg/kg/injection, schedule: Q01DX001 (ip), vehicle: suspension in saline) was 79 % of control.

`CN(C)N=Nc1cccc(C(N)=O)c1`: the T/C reads like this: (endpoint: median tumor weight (est.), dose: 20.0 mg/kg/injection, schedule: Q07DX005 (ip), vehicle: Klucel (hydroxypropylcellulose) (HPC)) 80 % of control; (endpoint: median tumor weight (est.), dose: 160.0 mg/kg/injection, schedule: Q07DX005 (ip), vehicle: Klucel (hydroxypropylcellulose) (HPC)) 54 % of control.

Take `CC[C@](O)(C(=O)O)c1cc2n(c(=O)c1CO)Cc1cc3ccccc3nc1-2`: the T/C runs as follows: (endpoint: mean tumor weight (est.), dose: 20.0 mg/kg/injection, schedule: Q07DX004 (ip), vehicle: saline) 70 % of control; (endpoint: mean tumor weight (est.), dose: 40.0 mg/kg/injection, schedule: Q07DX004 (ip), vehicle: saline) 61 % of control; (endpoint: mean tumor weight (est.), dose: 60.0 mg/kg/injection, schedule: Q07DX004 (ip), vehicle: saline) 48 % of control; (endpoint: mean tumor weight, dose: 2.5 mg/kg/injection, schedule: Q01DX009 (ip), vehicle: saline) 55 % of control; (endpoint: mean tumor weight, dose: 10.0 mg/kg/injection, schedule: Q07DX006 (ip), vehicle: saline) 13 % of control; (endpoint: mean tumor weight, dose: 20.0 mg/kg/injection, schedule: Q07DX006 (ip), vehicle: saline) 36 % of control and 42 % of control. Besides, the T/C is 102 % of control (endpoint: mean tumor weight, dose: 20.0 mg/kg/injection, schedule: Q07DX007 (ip), vehicle: saline); 23 % of control (endpoint: mean tumor weight, dose: 40.0 mg/kg/injection, schedule: Q07DX006 (ip), vehicle: saline); 71 % of control (endpoint: mean tumor weight, dose: 40.0 mg/kg/injection, schedule: Q07DX007 (ip), vehicle: saline); 2 % of control (endpoint: mean tumor weight, dose: 60.0 mg/kg/injection, schedule: Q07DX006 (ip), vehicle: saline); 49 % of control (endpoint: mean tumor weight, dose: 80.0 mg/kg/injection, schedule: Q07DX007 (ip), vehicle: saline); 58 % of control (endpoint: median tumor weight (est.), dose: 6.25 mg/kg/injection, schedule: Q07DX005 (ip), vehicle: saline). Further, the T/C is, setting by setting: (endpoint: median tumor weight (est.), dose: 12.5 mg/kg/injection, schedule: Q07DX005 (ip), vehicle: saline) 59 % of control; (endpoint: median tumor weight (est.), dose: 25.0 mg/kg/injection, schedule: Q07DX005 (ip), vehicle: saline) 41 % of control.

With `O=C(O)C1CSCN1` (stereo unspecified), the T/C runs as follows: (endpoint: median tumor weight change, dose: 12.5 mg/kg/injection, schedule: Q01DX001 (ip), vehicle: water) 79 % of control; (endpoint: median tumor weight change, dose: 25.0 mg/kg/injection, schedule: Q01DX001 (ip), vehicle: water) 111 % of control; (endpoint: median tumor weight change, dose: 50.0 mg/kg/injection, schedule: Q01DX001 (ip), vehicle: water) 173 % of control; (endpoint: median tumor weight change, dose: 100.0 mg/kg/injection, schedule: Q01DX001 (ip), vehicle: water) 90 % of control; (endpoint: median tumor weight change, dose: 200.0 mg/kg/injection, schedule: Q01DX001 (ip), vehicle: water) 59 % of control.
